Measured values published in paper PMC6706398 (Scientific Reports, 2019).
Where “and” joins values, the source holds several entries; their conditions need not be identical. Equal entries are not always repeated. Where two headings read alike, the source gives them in different places.

Columns and labels:
[1] = molecular target: wild-type CT holotoxin (cCT) (Vibrio cholerae, UniProt Q57193); assay: biochemical; assay type: binding
CT [2] = details: cited from earlier work
CT [3] = details: cited from earlier work; remark: listed apart in the source
[4] = system: CTB binding to jejunal epithelial cells; details: cited from earlier work
[5] = system: CTB binding in cell culture (intestinal epithelial cells); details: cited from earlier work

CC(=O)N[C@H]1[C@H](O[C@@H]2[C@@H](O)[C@H](O)O[C@H](CO)[C@@H]2O)O[C@H](CO)[C@@H](O[C@@H]2O[C@H](CO)[C@H](O)[C@H](O)[C@H]2O)[C@@H]1O[C@@H]1O[C@@H](C)[C@@H](O)[C@@H](O)[C@@H]1O [Le^x tetraose]
Kd ([1]; Kd): 7.7 ± 0.5 mM

CC(=O)N[C@H]1[C@H](O[C@@H]2[C@H](O[C@]3(C(=O)O)C[C@H](O)[C@@H](NC(C)=O)[C@H]([C@H](O)[C@H](O)CO)O3)[C@@H](O)[C@H](O[C@H]3[C@H](O)[C@@H](O)[C@H](O)O[C@@H]3CO)O[C@@H]2CO)O[C@H](CO)[C@H](O)[C@@H]1O[C@@H]1O[C@H](CO)[C@H](O)[C@H](O)[C@H]1O[C@@H]1O[C@@H](C)[C@@H](O)[C@@H](O)[C@@H]1O [GM1os]
Kd (CT [2]): 43 nM
Kd [1]: 5.77e-05 ± 3e-07 mM

CC(=O)N[C@H]1[C@H](O[C@@H]2[C@H](O[C@]3(C(=O)O)C[C@H](O)[C@@H](NC(C)=O)[C@H]([C@H](O)[C@H](O)CO)O3)[C@@H](O)[C@H](O[C@H]3[C@H](O)[C@@H](O)[C@H](O)O[C@@H]3CO)O[C@@H]2CO)O[C@H](CO)[C@H](O)[C@@H]1O[C@@H]1O[C@H](CO)[C@H](O)[C@H](O)[C@H]1O[C@@H]1O[C@@H](C)[C@@H](O)[C@@H](O)[C@@H]1O [Fucosyl-GM1]
binding to CT relative to GM1 (CT [3]): almost as strongly as GM1

CC(=O)N[C@@H]1[C@@H](O[C@@H]2O[C@@H](C)[C@@H](O)[C@@H](O)[C@@H]2O)[C@H](O[C@@H]2O[C@H](CO)[C@H](O)[C@H](O)[C@H]2O)[C@@H](CO)O[C@H]1O [Le^x triaose]
blocking of CTB binding to jejunal epithelial cells [4]: can be blocked
Kd ([1]; Kd): 8.1 mM and 8 mM

C[C@H](O)[C@@H](O)[C@@H](O)[C@H](O)C=O [L-fucose]
blocking of CTB binding in cell culture [5]: block CTB binding
